Drawing on patent US8697691B2, “Alkyl 3-((2-amidoethyl)amino)-8-azabicyclo[3.2.1]octane-8-carboxylate analogs as selective M1 agonists and methods of making and using same” (Vanderbilt University, priority 2009, dated 2014), this text covers EC50 and Emax for 25 compounds.

Like-named read-outs stand apart in the source and are kept apart here.

This assay addresses T1, rat M1 receptor (Rattus norvegicus, UniProt P08482).
T1 construct: host or cells: CHO-K1
T1 sequence (P08482 1-460): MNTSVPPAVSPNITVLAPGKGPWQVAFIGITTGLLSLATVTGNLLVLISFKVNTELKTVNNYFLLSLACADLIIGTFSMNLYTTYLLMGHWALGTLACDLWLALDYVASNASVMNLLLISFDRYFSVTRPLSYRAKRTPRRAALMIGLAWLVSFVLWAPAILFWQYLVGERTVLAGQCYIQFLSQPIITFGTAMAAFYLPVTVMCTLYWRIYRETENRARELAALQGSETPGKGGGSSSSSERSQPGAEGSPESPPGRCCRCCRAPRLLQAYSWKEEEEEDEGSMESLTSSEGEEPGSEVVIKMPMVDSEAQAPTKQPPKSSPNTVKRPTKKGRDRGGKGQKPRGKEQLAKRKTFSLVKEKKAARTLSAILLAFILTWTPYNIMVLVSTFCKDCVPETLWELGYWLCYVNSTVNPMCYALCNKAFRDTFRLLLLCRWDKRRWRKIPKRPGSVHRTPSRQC
Description: Calcium mobilization assay, CHO-K1 cells stably expressing rat M1 (low throughput, Flexstation II). Type of assay: cell-based. The following applies: for Emax: CHO-K1, read-out: Efficacy (% Max ACh). An excerpt: Chinese hamster ovary (CHO-K1) cells stably expressing rat (r)M1 were purchased from the American Type Culture Collection and cultured according to their indicated protocol. CHO cells stably expressing human (h)M2, hM3, and hM5 were described previously (Levey et al., 1991); hM1 and hM4 cDNAs were purchased from Missouri S&T cDNA Resource; rM4 cDNA was provided by T. I. Bonner (National Institutes of Health, Bethesda, Md.). hM1, hM4, and rM4 cDNAs were used to stably transfect CHO-K1 cells purchased from the American Type Culture Collection using Lipofectamine2000. To make stable hM2, hM4 and rM4 cell lines for use in calcium mobilization assays, these cells also were stably transfected with a chimeric G-protein (Gqi5) (provided by B. R. Conklin, University of California, San Francisco) using Lipofectamine 2000. rM1, hM3, and hM5 cells were grown in Ham's F-12 medium containing 10% heat-inactivated fetal bovine serum (FBS), 20 mM HEPES, and 50 μg/mL G418 sulfate. hM2-Gqi5 and hM4-Gqi5 cells were grown in the same medium also containing 500 μg/mL Hygromycin B. Stable rM4-Gqi5 cells were grown in DMEM containing 10% heat-inactivated FBS, 20 mM HEPES, 400 μg/mL G418 sulfate, and 500 μg/mL Hygromycin B. The rat M1 Y381A orthosteric mutant receptor cDNA was generated using the Quik-Change site-directed mutagenesis kit (Stratagene) and verified by sequencing. CHO-K1 cells were stably transfected with this cDNA using Lipofectamine2000 and screened for expression based on calcium mobilization in response to the allosteric M1 agonist N-desmethylclozapine.
For low throughput measurement of agonist-evoked increases in intracellular calcium, CHO-K1 cells stably expressing muscarinic receptors were plated in 100 μL of growth medium at 5×10^4 (rM1, hM3, and hM5) or 6×10^4 cells per well (rM1 Y381A, hM2, and rM4) in Costar 96-well black-walled, tissue culture (TC)-treated, clear-bottom plates (Fisher). Cells were incubated overnight at 37° C. and 5% CO2. The next day, medium was removed from the cells, and they were incubated with 50 μL of 2 μM Fluo-4/acetoxymethyl ester (Invitrogen, Carlsbad, Calif.) prepared as a 2.3 mM stock in DMSO and mixed in a 1:1 ratio with 10% (w/v) Pluronic F-127 and diluted in assay buffer [HBSS (Invitrogen) supplemented with 20 mM HEPES and 2.5 mM probenecid, pH 7.4] for 1 h at 37° C. and 5% CO2. Dye was removed and replaced with 50 μL of assay buffer. For calcium fluorescence measurements, CRCs of compounds (50 μl, 2×) were added 19 s after the beginning of data collection via a Flexstation II (Molecular Devices, Sunnyvale, Calif.). Fluorescence imaging continued for a total of 130 s acquisition time using an excitation wavelength of 488 nm, an emission wavelength of 525 nm, and a cutoff wavelength of 515 nm. All of the peaks of the calcium response were normalized to the response to a maximally effective concentration of ACh (ECmax). These normalized peak calcium response values were fit using GraphPad Prism version 4.0 to a four-parameter logistic equation to determine EC50 values.
In general terms: Calcium assays in cells follow changes in intracellular calcium, usually with a dye or a luminescent sensor.

The mark [1] stands for this setting: rat M1, agonist-evoked calcium mobilization in CHO-K1 cells, read-out: Potency (EC50).

On to `CCOC(=O)N1C2CCC1CC(NCCNC(=O)c1cccs1)C2` (centres unmarked) [Example 1, Ethyl 3-(2-(thiophene-2-carboxamido)ethylamino)-8-azabicyclo[3.2.1]octane-8-carboxylate], for which the EC50 (in general, the concentration giving half of the maximal effect) worked out at 74 nM and the Emax was 88%.

Turning to `CCOC(=O)N1C2CCC1CC(NCCNC(=O)c1ccccc1F)C2` (centres unmarked) [Example 2, Ethyl 3-(2-(2-fluorobenzamido)ethylamino)-8-azabicyclo[3.2.1]octane-8-carboxylate], the EC50 is 69 nM and the Emax is 103%.

Consider `CCOC(=O)N1C2CCC1CC(NCCNC(=O)c1ccccc1C)C2` (centres unmarked) [Example 3, ethyl 3-({2-[(2-methylphenyl)formamido]-ethyl}amino)-8-azabicyclo[3.2.1]octane-8-carboxylate], for which the EC50 turned out to be 85 nM and the Emax was found to be 81%.

For the compound `CCOC(=O)N1C2CCC1CC(NCCNC(=O)c1cccc(OC)c1)C2` (centres unmarked) [Example 4, ethyl 3-({2-[(3-methoxy-phenyl)formamido]-ethyl}amino)-8-azabicyclo[3.2.1]octane-8-carboxylate], the Emax is 81%. Moreover, the EC50 under setting [1] worked out at 211 nM.

Consider `CCOC(=O)N1C2CCC1CC(NCCNC(=O)c1ccc(F)cc1C(F)(F)F)C2` (centres unmarked) [Example 5, ethyl 3-[(2-{[4-fluoro-2-(trifluoromethyl)phenyl]-formamido}ethyl)-amino]-8-azabicyclo[3.2.1]octane-8-carboxylate], for which the Emax worked out at 39%.

Take `CCOC(=O)N1C2CCC1CC(NCCNC(=O)c1ccc(F)cc1F)C2` (centres unmarked) [Example 6, ethyl 3-({2-[(2,4-difluorophenyl)formamido]-ethyl}amino)-8-azabicyclo[3.2.1]octane-8-carboxylate]: the EC50 was 72 nM and the Emax is 82%.

With `CCOC(=O)N1C2CCC1CC(NCCNC(=O)c1ccc(F)cc1Cl)C2` (centres unmarked) [Example 7, ethyl 3({2-[(2-chloro-4-fluorophenyl)formamido]-ethyl}amino)-8-azabicyclo[3.2.1]octane-8-carboxylate], the EC50 stood at 96 nM and the Emax is 95%.

On to `CCOC(=O)N1C2CCC1CC(NCCNC(=O)c1ccc(C)cc1)C2` (centres unmarked) [Example 8, ethyl 3-({2-[(4-methylphenyl)formamido]-ethyl}amino)-8-azabicyclo[3.2.1]octane-8-carboxylate], for which the Emax was found to be 47%.

In the case of `CCOC(=O)N1C2CCC1CC(NCCNC(=O)c1cccc(C)c1)C2` (centres unmarked) [Example 9, ethyl 3-({2-[(3-methylphenyl)formamido]-ethyl}amino)-8-azabicyclo[3.2.1]octane-8-carboxylate], the Emax was 103%. For the same compound, the EC50 under setting [1] came to 115 nM.

Regarding `CCOC(=O)N1C2CCC1CC(NCCNC(=O)c1ccc(Cl)c(Cl)c1)C2` (centres unmarked) [Example 10, ethyl 3-({2-[(3,4-dichlorophenyl)formamido]-ethyl}amino)-8-azabicyclo[3.2.1]octane-8-carboxylate], the Emax worked out at 49%. In addition, under setting [1], the EC50 was determined as 1020 nM.

On to `CCOC(=O)N1C2CCC1CC(NCCNC(=O)c1ccc(C)c(C)c1)C2` (centres unmarked) [Example 11, ethyl 3-({2-[(3,4-dimethylphenyl)formamido]-ethyl}amino)-8-azabicyclo[3.2.1]octane-8-carboxylate], for which the Emax is 48%.

As to `CCOC(=O)N1C2CCC1CC(NCCNC(=O)c1ccc3c(c1)CCO3)C2` (centres unmarked) [Example 12, ethyl 3-{[2-(2,3-dihydro-1-benzofuran-5-ylformamido)ethyl]-amino}-8-azabicyclo[3.2.1]octane-8-carboxylate], the Emax is 31%.

On to `CCOC(=O)N1C2CCC1CC(NCCNC(=O)c1ccc(C)c(F)c1)C2` (centres unmarked) [Example 13, ethyl 3-({2-[(3-fluoro-4-methylphenyl)formamido]-ethyl}amino)-8-azabicyclo[3.2.1]octane-8-carboxylate], for which the Emax was 50%. Moreover, under setting [1], the EC50 came to 631 nM.

In the case of `CCOC(=O)N1C2CCC1CC(NCCNC(=O)c1ccco1)C2` (centres unmarked) [Example 14, ethyl 3-{[2-(furan-2-ylformamido)ethyl]-amino}-8-azabicyclo[3.2.1]octane-8-carboxylate], the Emax is 24%.

Take `CCOC(=O)N1C2CCC1CC(NCCNC(=O)c1ccc(F)c(F)c1)C2` (centres unmarked) [Example 15, ethyl 3-({2-[(3,4-difluorophenyl)formamido]-ethyl}amino)-8-azabicyclo[3.2.1]octane-8-carboxylate]: the Emax worked out at 104%. For the same compound, under setting [1], the EC50 was found to be 122 nM.

Take `CCOC(=O)N1C2CCC1CC(NCCNC(=O)c1ccccn1)C2` (centres unmarked) [Example 16, ethyl 3-{[2-(pyridin-2-ylformamido)ethyl]-amino}-8-azabicyclo[3.2.1]octane-8-carboxylate]: the Emax came out at 22%.

With `CCOC(=O)N1C2CCC1CC(NCCNC(=O)c1ccc(Cl)cc1F)C2` (centres unmarked) [Example 17, ethyl 3-({2-[(4-chloro-2-fluorophenyl)formamido]-ethyl}amino)-8-azabicyclo[3.2.1]octane-8-carboxylate], the Emax stood at 20%.

Turning to `CCOC(=O)N1C2CCC1CC(NCCNC(=O)c1ccccc1)C2` (centres unmarked) [Example 18, ethyl 3-{[2-(phenylformamido)ethyl]-amino}-8-azabicyclo[3.2.1]octane-8-carboxylate], the EC50 was 67 nM and the Emax was found to be 103%.

For `CCOC(=O)N1C2CCC1CC(NCCNC(=O)Cc1ccccc1)C2` (centres unmarked) [Example 19, ethyl 3-{[2-(2-phenylacetamido)ethyl]-amino}-8-azabicyclo[3.2.1]octane-8-carboxylate], the Emax turned out to be 33%.

Take `CCOC(=O)N1C2CCC1CC(NCCNC(=O)Cc1cccs1)C2` (centres unmarked) [Example 20, ethyl 3-({2-[2-(thiophen-2-yl)acetamido]ethyl}-amino)-8-azabicyclo[3.2.1]octane-8-carboxylate]: the Emax amounted to 51%.

Take `CCOC(=O)N1C2CCC1CC(NCCNC(=O)c1c(F)cccc1F)C2` (centres unmarked) [Example 21, ethyl 3-({2-[(2,6-difluorophenyl)formamido]-ethyl}amino)-8-azabicyclo[3.2.1]octane-8-carboxylate]: the Emax came out at 18%. Also, the EC50 under setting [1] was 880 nM.

Take `CCOC(=O)N1C2CCC1CC(NCCNC(=O)c1ccc(F)c(OC)c1)C2` (centres unmarked) [Example 22, ethyl 3-({2-[(4-fluoro-3-methoxyphenyl)formamido]-ethyl}amino)-8-azabicyclo[3.2.1]octane-8-carboxylate]: the Emax worked out at 12%. In addition, under setting [1], the EC50 turned out to be 1460 nM.

Regarding `CCOC(=O)N1C2CCC1CC(NCCNC(=O)c1ccc(F)c(C(F)(F)F)c1)C2` (centres unmarked) [Example 23, ethyl 3-[(2-{[4-fluoro-3-(trifluoromethyl)phenyl]-formamido}ethyl)amino]-8-azabicyclo[3.2.1]octane-8-carboxylate], the Emax turned out to be 47%. Besides, under setting [1], the EC50 worked out at 2720 nM.

Regarding `CCOC(=O)N1C2CCC1CC(NCCNC(=O)c1ccc(Cl)cc1)C2` (centres unmarked) [Example 24], the Emax was 25%. Besides, the EC50 under setting [1] turned out to be 1070 nM.

For `CCOC(=O)N1C2CCC1CC(NCCNC(=O)c1ccccc1Cl)C2` (centres unmarked) [Example 25, ethyl 3-({2-[(2-chlorophenyl)formamido]-ethyl}amino)-8-azabicyclo[3.2.1]octane-8-carboxylate], the Emax came out at 80%. Moreover, the EC50 under setting [1] was 112 nM.
